According to US20090082425A1 (priority 2007, published 2009):

Test system: DU-145
Format: cell-based, human

For `CC(=O)O[C@H]1C(=O)[C@@]2(C)[C@H]([C@H](OC(=O)c3ccccc3)[C@]3(O)C[C@H](OC(=O)[C@H](O)[C@@H](NC(=O)c4ccccc4)c4ccccc4)C(C)=C1C3(C)C)[C@]1(OC(C)=O)CO[C@@H]1C[C@@H]2O` [Taxol], the “Cell survival rate (%)” value was 63.88%.
